Assay results taken from paper PMC8495968, “Towards optimizing peptide-based inhibitors of protein–protein interactions: predictive saturation variation scanning (PreSaVS)” (RSC Chemical Biology, 2021).
Like-named read-outs stand apart in the source and are kept apart here.

What was measured:
[1] = Solubility, qualitative test
Procedure: (1 picture or pasted object on this page, not shown here)
(§1) For competition experiments, the anisotropies were determined as for the direct titration and then plotted against inhibitor concentration and fit (equation 5) to determine the IC50 and error […]
(§2) y = rmax + (rmin-rmax)/(1+(x/xo)p) Equation 5
Where xo represents the IC50
Fluorescence anisotropy direct titration assays were performed with protein concentration diluted over 16-24 points using 2-fold dilutions. Followed by addition of tracer peptide was added to the wells. For control wells, the tracer peptide was replaced with an identical volume of assay buffer. Plates were read after 45 minutes.
(§3) Competition binding assays:
(§4) FA competition assays were performed in 384 well plates with the concentration of variant […]
(§5) with fixed protein and tracer concentrations. FITC-labelled peptide was added to each well to […]
The total volume in each well was 60 μL. Plates were read after 45 minutes of incubation at […]
ITC experiments were carried out using a Microcal ITC200i instrument (Malvern) at 25°C in 20 mM Tris, 150 mM NaCl, pH 7.5 buffer. […] Data was analysed using Microcal Origin 8 and fitted to a one-binding site model
Spectra were recorded on a Chirascan circular dichroism spectropolarimeter (Applied Photophysics), at 20°C, using 1 mm cells and a scan speed of 5 nm/min. […]
Peptide solubility was assessed using a qualitative test. […]

hSUMO-1 18-97 = molecular target: T1, hSUMO-1 18-97 (Homo sapiens, UniProt P63165); experiment: Fluorescence anisotropy competition assay, FITC-peg-SIM tracer / SUMO; assay type: binding; conditions: competition FA, 50 mM Tris, 150 mM NaCl, 25 nM tracer, 100 nM SUMO, read after 45 min, triplicate
T1 construct: 18-97; His-TEV (N, cleaved yes); made in house
T1 sequence (P63165 18-97): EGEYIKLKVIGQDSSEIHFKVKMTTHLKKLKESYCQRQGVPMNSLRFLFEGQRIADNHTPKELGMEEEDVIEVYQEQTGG
Procedure: hSUMO-1 18-97 was expressed and purified as previously described from a pet19b His-TEV-SUMO-1 (18-97) construct with cleavage of the tag using TEV protease.4 […]
Fluorescence anisotropy assays were performed in 384-well plates (Greiner Bio-one). Each experiment was run in triplicate and the fluorescence anisotropy measured using a Perkin Elmer EnVisionTM 2103 MultiLabel plate reader, with excitation at 480 nm (30 nm bandwidth), polarised dichroic mirror at 505 nm and emission at 535 nm (40 nm bandwidth, S and P polarised). All assays were performed in 20 mM Tris, 100 mM NaCl, 0.1 mM DTT, pH 7.5 unless otherwise stated and data analysed following previously published methods.
Fluorescence anisotropy data was processed as described previously.[2] Briefly. the data from both the P (perpendicular intensity) and S (parallel intensity) channels, resulting from this measurement and corrected by subtracting the corresponding control wells, were used to calculate the intensity and anisotropy for each well following Equations 1 and 2: […]
For direct titration the average anisotropy (across three experimental replicates) and the standard deviation of these values were then calculated and fit to a logistic model using OriginPro 9.0 to determine the maximum and minimum anisotropies then the fraction bound calculated (Equation 3) and used to determine Kd (equation 4)
Lb= (r‒rmin)/λ(rmax‒r)+r‒rmin Equation 3
y= {(k+ x+[ FL])‒√{k+x+[FL] 2‒4x[FL]}}/2 Equation 4 r = anisotropy, I = total intensity, P = perpendicular intensity, S = parallel intensity, G = instrument factor which was set to 1 for all experiments, Lb = fraction ligand bound, λ = […]
as §1, §2
Where xo represents the IC50 […]
as §3, §4, §5
For control wells, the tracer peptide was replaced with an identical volume of assay buffer.
The total volume in each well was 60 μL. […]

Compound	maximum solubility / concentration obtained ([1]; qualitative test)	IC50 (hSUMO-1 18-97)	maximum solubility / concentration obtained [1]
CC[C@H](C)[C@H](NC(=O)[C@@H](NC(=O)[C@H](CCC(=O)O)NC(=O)[C@H](CC(=O)O)NC(=O)[C@H](CCC(=O)O)NC(=O)[C@H](CC(N)=O)NC(=O)[C@H](CC(=O)O)NC(C)=O)C(C)C)C(=O)N[C@H](C(=O)N[C@H](C(=O)N[C@@H](Cc1c[nH]c2ccccc12)C(=O)N[C@@H](CCC(=O)O)C(=O)N[C@@H](CCCCN)C(=O)N[C@@H](CCCCN)C(N)=O)C(C)C)[C@@H](C)CC [SIM2705–2717I2708D]	> 8 mM	14.8 ± 0.7 µM	
CC[C@H](C)[C@H](NC(=O)[C@H](CCC(=O)O)NC(=O)[C@H](CC(N)=O)NC(=O)[C@H](CC(=O)O)NC(C)=O)C(=O)N[C@@H](CCC(=O)O)C(=O)N[C@H](C(=O)N[C@H](C(=O)N[C@H](C(=O)N[C@H](C(=O)N[C@@H](Cc1c[nH]c2ccccc12)C(=O)N[C@@H](CCC(=O)O)C(=O)N[C@@H](CCCCN)C(=O)N[C@@H](CCCCN)C(N)=O)C(C)C)[C@@H](C)CC)[C@@H](C)CC)C(C)C [SIM2705–2717]			~ 1 mM
